Like-named read-outs stand apart in the source and are kept apart here.
Tests used:
BxPC3 cells = assay: Cell killing of free dye PIT, CellTox Green Cytotoxicity Assay; assay type: cell-based; details: BxPC3, 0-1 μg/mL free dye, 690 nm laser 64 J/cm2, 24 hours after light
Experimental: The PIT killing activity of free dyes were evaluated using the molecules synthesized as Example 12 and Example 13. BxPC3 cells (#CRL-1687, ATCC, Manassas VA) were plated, 5,000 cells per well, in RPMI-1640 media supplemented with 10% FBS and 1% Penicillin/Streptomycin (complete culture media) in a deep-well 96-well plate. Following overnight incubation at 37° C., the culture media were removed and the cells were incubated in 100 μL complete media with 1, 0.333, 0.111, 0.03704, 0.01235, 0.00412, 0.00137, or 0 μg/mL Example 12, Example 13, or IRDye 700DX carboxylate (control) for one hour at 4° C. […]
The effect of different treatment regimens on cell death was measured using the CellTox™ Green Cytotoxicity Assay (Cat No: G8742, Promega, Madison, WI). […] The CellTox™ Green fluorescence signal was measured at 24 hours after light treatment using a fluorescence plate reader. The cells were then lysed with diluted lysis solution (Cat No: G1821, Promega, Madison, WI), incubated at 37° C. for 30 minutes, and the CellTox™ Green fluorescence signal was measured again post-lysis. The percentages of dead cells were calculated by taking the ratio between background (1× CellTox™ Green in complete culture media without cells)-subtracted CellTox™ Green signal per well prior to and post lysis and multiplying the ratio by 100.

[1] = Kinetic (aqueous) solubility in pH 7.4 DPBS, UV quantification; details: kinetic; pH 7.4 DPBS, 4 hours, room temperature (25° C.)
[2] = Singlet oxygen quantum yield, indirect method with chemical quencher (DPBF or ADMA); assay type: physicochemical; details: quencher ADMA, aqueous media, 670 nm LED 5 mW/cm^2, reference AlPcSmix
Source text: Photogeneration quantum yields of singlet oxygen (ΦΔ) were obtained by an indirect method, using either diphenylisobenzofuran (DBPF) or anthracene-9,10-bis-methylmalonate (ADMA) as chemical quenchers in either N,N-dimethylformamide or aqueous media, respectively. Typically, a solution of the phthalocyanine and the quencher was irradiated with a red LED lamp (670 nm) at 5 mW/cm^2. The initial DPBF or ADMA concentrations were kept the same for both the reference and the test samples. The degradation of the DPBF band at 414 nm or ADMA at 401 nm was monitored in a Varian Cary® 50 UV-Vis spectrophotometer, every five seconds in the case of DPBF (up to 30 seconds) and every minute in the case of ADMA (up to five minutes). ZnPc (ΦΔ=0.67) and AlPcSmix (ΦΔ=0.42) were used as references in N,N-dimethylformamide or aqueous media, respectively.
The relative method shown by Eq. (1) was employed for calculations of the ΦΔ:
[formula] • where ΦΔ and ΦΔref are the ^1O2 generation quantum yields for the sample and reference, respectively, m and mref are the DPBF or ADMA photobleaching rates in the presence of the phthalocyanine of the invention and the reference, respectively, and I and Iref are the rates of light absorption by the phthalocyanine derivative and reference, respectively. Concentrations of the test compound and reference were chosen such that their respective absorptions at the irradiation wavelength were the same.

[3] = UV-Vis absorption spectra; assay type: physicochemical
Experimental: The UV-Vis absorption spectra of the compounds in either an organic solvent or aqueous media was recorded in a Varian Cary® 50 UV-Vis spectrophotometer. Compounds of the invention show absorption in the 600-800 nm region of the spectra.

[4] = Thermodynamic solubility in pH 7.4 DPBS, UV quantification; assay type: physicochemical; details: Dulbecco's phosphate-buffered saline (DPBS), aqueous buffer, thermodynamic from solid, room temperature (25° C.)
Experimental: A working 1 mM stock solution of the test compound in DMSO was prepared from a 10 mM DMSO stock solution. A spectrum scan from 220 nm to 1000 nm of this working solution was performed in a 96-well UV plate to identify the wavelength maxima. […] The selected stock solution was serially diluted in DMSO to confirm linearity and generate a seven to eight-point calibration curve. Of note, only linear points were considered in the curve.
The resulting solution was placed on a RotoSpin™ shaker at 50 rpm for 24 hours at room temperature (25° C.). The solution was then filtered using a 0.45 μm PVDF filter to remove any insoluble fraction of the compound. A 150 μL aliquot of the filtrate was taken for quantification using UV spectroscopy (POLARstar Omega BMG Plate Reader). The optical densities of the standard solutions and the test sample were acquired at the same wavelength maxima. The test sample concentration was calculated from its optical density using the linearity/calibration curve.

[5] = cited from earlier work

Compound	cell death (cytotoxicity) following illumination (BxPC3 cells)	Solubility* (kinetic solubility) [1]	ΦΔ (singlet oxygen quantum yield) [2]	solubility thermodynamic at 24 h [4] [µg/mL]	also measured
3-((6-((λ^5-azaneyl)oxy)-6-oxohexyl)(3-(((λ5-azaneyl)oxy)sulfonyl)propyl)(3-(((19-(((3-(bis(3-(((λ5-azaneyl)oxy)sulfonyl)propyl)(3-sulfonatopropyl)ammonio)propyl)dimethylsilyl)oxy)-19H-6,11-(azeno)-17,21-(azeno[3]episoindoloazeno)benzo[7,8][1,3,5,10]tetraaza[2]silacycloundecino[4,3-a:11,1-a′]diisoindol-19-yl)oxy)dimethylsilyl)propyl)ammonio)propane-1-sulfonate [Example 12]	dose-dependent cytotoxicity	C (C: >100 μg/mL)	B (B: >0.5)	–	–
4-((6-((λ5-azaneyl)oxy)-6-oxohexyl)(4-(((λ5-azaneyl)oxy)sulfonyl)butyl)(3-(((19-(((3-(bis(4-(((λ5-azaneyl)oxy)sulfonyl)butyl)(4-sulfonatobutyl)ammonio)propyl)dimethylsilyl)oxy)-19H-6,11-(azeno)-17,21-(azeno[3]episoindoloazeno)benzo[7,8][1,3,5,10]tetraaza[2]silacycloundecino[4,3-a:11,1-a′]diisoindol-19-yl)oxy)dimethylsilyl)propyl)ammonio)butane-1-sulfonate [Example 13]	dose-dependent cytotoxicity	C (C: >100 μg/mL)	B (B: >0.5)	–	maximum UV absorbance (UVmax) [3]: 677 nm; absorption at 690 nm relative to UVmax ([3]; wavelength 690 nm): approximately 50%
C[Si](C)(CCCNC(=O)CCCCC(=O)O)O[Si-2]123(O[Si](C)(C)CCCNC(=O)C(CCC[N+](CCCS(=O)(=O)O)(CCCS(=O)(=O)O)CCCS(=O)(=O)O)CCC[N+](CCCS(=O)(=O)O)(CCCS(=O)(=O)O)CCCS(=O)(=O)O)n4c5c6ccccc6c4N=C4c6ccccc6C(=[N+]41)N=c1c4ccccc4c(n12)=NC1=[N+]3C(=N5)c2ccccc21.[Na+].[Na+].[Na+].[Na+].[Na+] [Example 20]	–	–	–	> 100	–
C[Si](C)(CCC[N+](CCCCS(=O)(=O)O)(CCCCS(=O)(=O)O)CCCCS(=O)(=O)O)O[Si-2]123(O[Si](C)(C)CCC[N+](CCCCS(=O)(=O)O)(CCCCS(=O)(=O)O)CCOCCOCCOCCOCCC(=O)O)n4c5c6ccccc6c4N=C4c6ccccc6C(=[N+]41)N=c1c4ccccc4c(n12)=NC1=[N+]3C(=N5)c2ccccc21.[Na+].[Na+].[Na+].[Na+] [Example 22, Sodium 2-((19-((dimethyl(3-(tris(4-sulfonatobutyl)ammonio)propyl)silyl)oxy)-19H-6,11-(azeno)-17,21-(azeno[3]episoindoloazeno)benzo[7,8][1,3,5,10]tetraaza[2]silacycloundecino[4,3-a:11,1-a′]diisoindol-19-yl)oxy)-2-methyl-6,6-bis(4-sulfonatobutyl)-9,12,15,18-tetraoxa-6-aza-2-silahenicosan-6-ium-21-oate]	–	–	–	> 100	–
[Zn+2].c1ccc2c(c1)-c1nc-2nc2[n-]c(nc3nc([n-]c4nc(n1)-c1ccccc1-4)-c1ccccc1-3)c1ccccc21 [ZnPc]	–	–	–	–	ΦΔ of reference ([5]; reference in N,N-dimethylformamide): 0.67
AlPcSmix	–	–	–	–	ΦΔ of reference ([5]; reference in aqueous media): 0.42

— patent US20240285765A1, “PHTHALOCYANINE DYE COMPOUNDS, CONJUGATES AND METHODS OF USE THEREOF” (Rakuten Medical, Inc., priority 2021, published 2024)
